The record followed here is publication PMC7725003, “Systematically Studying the Optimal Amino Acid Distribution Patterns of the Amphiphilic Structure by Using the Ultrashort Amphiphiles” (Frontiers in Microbiology, 2020).

Molecules are shown by their SMILES.

This assay deals with P. aeruginosa ATCC 27853. It is filed as cell-based, Pseudomonas aeruginosa. The settings on record: after 30 passages in sub-MBC concentration. The method, then:
Finally, P. aeruginosa ATCC 27853 was used as the model of the drug resistance study. […] The MBC values of the drugs against every two passage’s cells were tested. As a control, MBCs were also tested using cells that were serially passaged in fresh MHB without drugs. The assay was conducted independently in triplicate with three biological replicates.

For the compound `CC(C)(O/N=C(\C(=O)N[C@@H]1C(=O)N2C(C(=O)[O-])=C(C[n+]3ccccc3)CS[C@H]12)c1csc(N)n1)C(=O)O` [ceftazidime, reference compound], the “increase of MBC value” worked out at 64 fold.
